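Test compounds were applied to cells in 96-well plates for 48 hours at 5 doses. Here, GI50 denotes the concentration required for 50% inhibition of growth. Definition used: TGI = concentration required for complete inhibition of growth.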
Experiments:
Assay in all cases: growth of human tumour cells (NCI), 48 h
MDA-MB-231 breast = system: MDA-MB-231 breast
HCC-2998 colon = system: HCC-2998 colon
CCRF-CEM leukemia = system: CCRF-CEM leukemia
SF-268 CNS = system: SF-268 CNS
SK-OV-3 ovarian = system: SK-OV-3 ovarian
HCT-15 colon = system: HCT-15 colon
RXF 393 renal = system: RXF 393 renal
OVCAR-8 ovarian = system: OVCAR-8 ovarian

SMILES | GI50 (MDA-MB-231 breast) [µM] | TGI (MDA-MB-231 breast) [µM] | GI50 (HCC-2998 colon) [µM] | TGI (HCC-2998 colon) [µM] | GI50 (CCRF-CEM leukemia) [µM] | TGI (CCRF-CEM leukemia) [µM] | GI50 (SF-268 CNS) [µM] | TGI (SF-268 CNS) [µM] | GI50 (SK-OV-3 ovarian) [µM] | TGI (SK-OV-3 ovarian) [µM] | GI50 (HCT-15 colon) [µM] | TGI (HCT-15 colon) [µM] | GI50 (RXF 393 renal) [µM] | TGI (RXF 393 renal) [µM] | GI50 (OVCAR-8 ovarian) [µM] | TGI (OVCAR-8 ovarian) [µM]
Cn1nc(-c2ccc(Cl)cc2)nc2c(=O)n(C)c(=O)nc1-2 | 1.28 | 7.34 | 1.18 | 3.83 | 1.49 | 50 | 1.8 | 6.58 | 4.8 | 17.7 | 0.766 | 1.53 | 0.781 | 1.57 | 0.976 | 3.51
CCN1C(=O)CCCc2c1ccc(Nc1ncc(Cl)c(NC3[C@@H](C(N)=O)[C@@H]4C=C[C@H]3C4)n1)c2OC (stereo partly specified) | 1.95 | 14.4 | 1.69 | 3.57 | 0.607 | 17.9 | 2.01 | 14.3 | 2.39 | 7.74 | 0.563 | > 20.5 | 1.22 | 3.38 | 1.41 | 32.2
N[C@@H]1C(=O)N2C(C(=O)OC(c3ccccc3)c3ccccc3)=C(CCl)CS[C@H]12 | 25.2 | 63.1 | 43 | > 100 |  | > 61.6 | 31.7 | 98.7 | > 100 | > 100 | 37.9 | > 100 | 26.4 | 63.7 | 27.3 | > 77
COc1cc(-c2cc(-c3ccc(Nc4ccnc5cc(Cl)ccc45)cc3)nc(N3CCOCC3)n2)cc(OC)c1OC | 1.81 | 4 | 3.64 | > 100 | 1.54 | 6.17 | 2.04 | 5.7 | 14.9 | 31.7 | 1.52 | 3.58 | 1.8 | 4.44 | 2.12 | 4.7
NC1=NC(c2ccc(Cl)cc2)N(c2ccc(S(N)(=O)=O)cc2)C(N)=N1 (stereo unspecified) |  | > 100 |  |  |  | > 100 |  | > 100 |  | > 100 |  | > 100 |  | > 100 |  | > 100
CC(=O)OC1=CC2=CC[C@H]3[C@@H]4CCC(=O)[C@@]4(C)CC(=O)[C@]3(S)[C@@]2(C)CC1 |  | 66.8 |  | 65.1 |  | > 100 |  | 89.6 |  | > 100 |  | > 100 |  | 39.7 |  | > 100
Brc1ccc2[nH]cc(-c3nc(-c4c[nH]c5ncccc45)cs3)c2c1 | 1.59 | 5.99 | 3.59 | 15.7 | 3.99 | 71.8 | 5.47 | 19.8 | 5.71 | 20.4 | 2.41 | 6.86 | 1.64 | 8.56 | 4.07 | > 100
COc1ccc(C(c2ccc(OCCN(C)C)cc2)c2cc3ccccc3c3ccccc23)cc1 (stereo unspecified) | 1.68 | 3.22 | 1.8 | 3.34 | 1.8 | 3.91 | 1.71 | 3.26 | 6.62 | 20.4 | 1.28 | 2.69 | 1.44 | 2.82 | 1.7 | 3.17
COC1=C(C)C(=O)c2c(c(CCCl)c3n2CCC3O)C1=O (stereo unspecified) | 21.8 | 83 | 0.348 | 1.57 | 4.6 | > 72.2 | 0.533 | 20 | 0.412 | 3.37 | 0.22 | 4.4 | 0.226 | 0.597 | 1.78 | 23.9
Oc1ccc(-c2nc3ccc4[nH]ncc4c3c3c2CCCC3)c(F)c1 | 2.79 | 10.5 | 4.25 | 14.5 | 2.05 | 11.4 | 3.27 | 14.7 | 0.765 | 2.75 | 2.26 | 11.3 | 1.47 | 5.63 | 1.92 | 9.39
COc1cccc(CSCC(=O)O)c1 |  | > 100 |  |  |  |  |  | > 100 |  | > 100 |  | > 100 |  | > 100 |  | > 100
COC(=O)C1OC2(CCCC3CC32)O[C@H]1C(=O)OC (stereo partly specified) |  | > 100 |  | > 100 |  | > 100 |  | > 100 |  | > 100 |  | > 100 |  | > 100 |  | > 100
COc1cccc(-c2nn(-c3ccccc3)cc2-c2ccnc(NCCNC(=O)Nc3cccc(C(F)(F)F)c3)c2)c1 | 1.97 | 4.58 | 1.72 | 3.26 | 2.46 | 7 | 2 | 4.49 | 3.5 | 12.2 | 1.7 | 3.71 | 1.53 | 3.03 | 3.3 | 9.77
CC1=CC(=O)C(C(C)C)=CC1=Nc1cc(Br)c(O)c(Br)c1 | 3.65 | 12.9 | 3.56 | 13 | 2.72 | 18.1 | 4.49 | 17.2 | 3.45 | 15.9 | 3.85 | 21.1 | 3.9 | 15.3 | 4.65 | 57.8
CCOC(=O)c1c(C)n(Cc2ccccc2)c2c1cc(O)c1[nH]c(Cc3ccccc3)nc12 | 20.1 | > 85.9 |  | 2.04 | > 21.4 | > 100 | 13.8 | > 100 | 23.2 | > 100 | 4.66 | > 100 | 3.4 | 14.8 | 29.6 | > 100
CN(COC(=O)c1ccccc1)c1nc(N(C)COC(=O)c2ccccc2)nc(N(C)COC(=O)c2ccccc2)n1 |  | 53.4 |  | > 100 |  | > 100 |  | > 88.1 |  | > 100 |  | > 100 |  | 26.2 |  | > 100
COc1ccc(/C=c2\sc3n(c2=O)C2C(NN=3)N(C)C(=O)N2C)cc1 (stereo unspecified) | 2.77 | > 100 | 1.5 | > 100 | 0.426 | > 100 | > 100 | > 100 | 2.13 | > 100 | 0.428 | > 100 | 0.603 | 2.75 | 1.75 | > 100
N#Cc1c(Br)n(C2OC(CO)C(O)C2O)c2ncnc(N)c12 (stereo unspecified) | 3.82 | > 79.9 | 2.15 | 26.3 | 0.241 | 3.87 | 1.5 | 18.9 | 4.29 | > 45.4 | 0.695 | 46.3 | 0.847 | 6.8 | 1.59 | > 100

SMILES | GI50 (MDA-MB-231 breast) [µM] | TGI (MDA-MB-231 breast) [µM] | GI50 (HCC-2998 colon) [µM] | TGI (HCC-2998 colon) [µM] | GI50 (CCRF-CEM leukemia) [µM] | TGI (CCRF-CEM leukemia) [µM] | GI50 (SF-268 CNS) [µM] | TGI (SF-268 CNS) [µM] | GI50 (SK-OV-3 ovarian) [µM] | TGI (SK-OV-3 ovarian) [µM] | GI50 (HCT-15 colon) [µM] | TGI (HCT-15 colon) [µM] | GI50 (RXF 393 renal) [µM] | TGI (RXF 393 renal) [µM] | GI50 (OVCAR-8 ovarian) [µM] | TGI (OVCAR-8 ovarian) [µM]
CCCCCCNC(=O)Oc1ccc(/C(=C(/C)Cc2ccc(OC)cc2)c2ccc(OCCCN(C)C)cc2)cc1 | 15.3 | 29.9 | 14.6 | 29.2 | 16.3 | 33.8 | 15 | 30.5 | 16.7 | 30.9 | 8.71 | 21.9 | 14.8 | 29.7 | 17.3 | 34.5
CCC(c1ccc(OC)cc1)C(CC)c1ccc(O)c(CN2CCN(C)CC2)c1 (stereo unspecified) | 3.7 | 15.1 | 2.15 | 4.62 | 5.37 | 20.4 | 7.66 | 21.5 | 13.8 | 29.2 | 2.66 | 7.67 | 2.83 | 12.2 | 6.35 | 21.8
Cc1ccc(-c2c3c(nn2-c2ccc(S(N)(=O)=O)cc2)-c2ccccc2C3)cc1 | 14.5 | 37.4 | 8.54 | 25.8 | 3.56 | > 100 | 20.3 | 44.7 | 47.3 | > 100 | 20.2 | 42.4 | 17 | 43.7 | 36.4 | > 100
O=C(CN1CCN(c2cc3c(cc2F)c(=O)c(C(=O)O)cn3C2CC2)CC1)Nc1nc(-c2ccc(Cl)cc2)cs1 | 5.09 | 61 | 5.17 | > 100 | 4.39 | > 100 | 4.19 | > 100 | 3.24 | 19.1 | 3.23 | 23.7 | 4.72 | > 100 | 3.26 | > 100
Cc1cn(C2C=CC(CO)O2)c(=O)[nH]c1=O (stereo unspecified) |  | > 1000 |  | > 1000 |  | > 1000 |  | > 1000 |  | > 1000 |  | > 1000 |  |  |  | > 1000
COC(=O)C(=CNC(N)=O)C(=O)OC |  |  |  |  |  | > 100 |  | > 100 |  |  |  | > 100 |  |  |  | > 100
Clc1ccc(-c2csc(Nc3cccc(-c4csc(-c5ccccc5)n4)c3)n2)cc1 | 6.77 | 15.3 |  |  |  |  | 8.68 | 19.6 | 25.3 | > 50 | 6.01 | 14.7 | 9.89 | 21.9 | 14.6 | 39
O=[N+]([O-])c1ccc(Oc2nc(Nc3ccc(O[C@H]4CO[C@H]5[C@@H]4OC[C@@H]5O)c(Cl)c3)ncc2F)c(Cl)c1 | 1.6 | 7.39 | 2.12 | 7.07 | 0.718 | 7.2 | 1.56 | 6.92 |  |  | 2.37 | 10.7 | 0.787 | 2.91 | 1.21 | > 100
O=C(O)C1CCCCC1c1c2ccc(=O)c(O)c-2oc2c(O)c(O)ccc12 (stereo unspecified) |  | 38.1 |  |  |  | 3.11 |  | > 100 |  | > 100 |  |  |  | > 100 |  | 88.7
COc1ccc(S(=O)(=O)NC2=NCCN2C(=S)SN2CCn3c2nsc3=S)cc1 | 15 | 36.9 | 21.4 | 37.9 | 7.95 | 32.4 | 18 | 37.8 |  |  | 20.8 | 58.9 | 4.11 | 22.1 | 27.3 | > 100
Oc1ccc(O)c(-c2cc(-c3ccc(Cl)cc3)nn2-c2ccccc2)c1 | 2.33 | 6.82 | 2.58 | 4.98 | 3.06 | > 100 | 2.71 | 12.2 |  |  | 12.5 | 25.5 |  |  | 4.51 | > 100
Nc1cc(O)ccc1N=Nc1ccc(-c2nc3ccccc3[nH]2)cc1 | 68.7 | > 100 |  |  |  |  | 3.07 | 22.8 | > 100 | > 100 | 37.2 | > 100 |  |  | 10.7 | 52.5
COc1ccccc1C1=C(Nc2ccccc2)C(=O)NC1=O | > 25 | > 25 | > 25 | > 25 |  |  | > 25 | > 25 | > 25 | > 25 | > 25 | > 25 | 7.87 | > 25 | > 25 | > 25
COc1cc(OC)c2nccc(NCCCN(C)C)c2c1[N+](=O)[O-] |  | > 100 |  | > 100 |  | > 100 |  | > 100 |  | > 100 |  | > 100 |  |  |  | > 100
S=C(Nc1ccc(N=Nc2ccccc2)cc1)SCc1ccccc1 |  | 28.9 |  |  |  | 36.1 |  | 36.6 |  | 98 |  | 28.3 |  | 46.4 |  | 22.5
O=C(O)C1CC2(C1)CC(C(=O)O)C2 (stereo unspecified) |  | > 100 |  | > 100 |  |  |  |  |  | > 100 |  | > 100 |  | > 100 |  | 
CC(=O)N1N=C(c2ccc(Nc3ccnc4cc(Cl)ccc34)cc2)CC1c1ccc(Cl)cc1 (stereo unspecified) | > 100 | > 100 | > 100 | > 100 |  |  | 9.1 | > 100 |  |  | 3.33 | > 100 | 5.07 | > 100 | > 100 | > 100
